Values joined by “and” are separate entries in the source; they are usually repeats but may differ in a detail not shown here. Identical values can stand only once. Like-named read-outs stand apart in the source and are kept apart here.
System: VE98MR intracellular amastigotes in J774.1 macrophages
Test: Macrophage-amastigote model, patient isolate VE98MR
Format: cell-based, Leishmania amazonensis
Conditions: for Regresion (GraphPad 6) of %Control vs dose (50% inhibitory concentration) / Growth (%) Exp1 %Control / Growth (%) Exp1 A/100MØ / Growth (%) Exp1 A/MØ / Growth (%) Exp1 Infección / Growth (%) Exp2 %Control / Growth (%) Exp2 A/100MØ / Growth (%) Exp2 A/MØ / Growth (%) Exp2 Infección / Growth (%) Exp3 %Control / Growth (%) Exp3 A/100MØ / Growth (%) Exp3 A/MØ / Growth (%) Exp3 Infección / Average A/100MØ: VE98MR; for Regresion (GraphPad 6) of %Control vs dose (50% inhibitory concentration): unit from Dose head; for Average A/100MØ: average of Exp1-3
Experimental: We used a previously described methodology, with some modifications. Macrophage monolayers, grown in RMPIc medium, for 3 days, were detached from the bottom of the culture chamber, by physical treatment (low temperature and light strokes). Obtained macrophages were seeded in flat-bottom 96-well culture plates, at a density of 2 × 10^5 cells mL^−1 (40,000 macrophages/well), in a final volume of 200 µL. Plates were incubated for 2 h, and the supernatant was discarded to remove non-adhered macrophages. Medium was replaced with stationary-phase promastigotes suspended in 200 µL of RPMIc (2 × 10^6 parasites mL^−1, 400,000 parasites/well), at a macrophage: parasite ratio 1:10 [40]. The plates were incubated for 4 h. Afterwards the medium was replaced with fresh RPMIc and increasing concentrations of compounds or drugs tested were applied, in volumes of 2 µL, according to the different treatment groups. Plates were kept for 72 h, at 37 °C and 5% CO2. The medium was discarded and the wells were washed twice with PBS. Next, a Giemsa staining was performed in situ. It consisted of adding 200 µL of methanol/well, incubating for 5 min, discarding the fixative, and letting it dry at room temperature. Later, the Giemsa solution (10% in PBS w/v, 200 µL/well) was added, incubated for 10 min, and washed with PBS, allowing it to dry. Finally, the bottom of the plates was detached by percussion and the circular bottoms (wells) were fixed to slides with Permount synthetic resin, for later evaluation (Alcazar W., manuscript in preparation). Cell counting was performed with a 100× immersion objective. A minimum of 200 random macrophages were examined. The percentage of infected macrophages (% infection) and the average number of amastigotes present in infected macrophages (amastigotes) were determined. […] The infection rate represents the number of intracellular amastigotes per 100 macrophages evaluated. Additionally, the GI50 for the decrease in the infection rate was calculated. At least three independent experiments were performed. The effect of amphotericin-B (AmB) [Sigma-Aldrich, (St. Louis, MO, USA)] was included as positive control of the assay.

C=C(C)C1CCC2(C=NO)CCC3(C)C(CCC4C5(C)CCC(=NO)C(C)(C)C5CCC43C)C12 (stereo not shown) [Compound 18]
SI (CC50/GI50) VE98MR (J774.1 CC50 / intracellular amastigote GI50, Table 2): 27.32
GI50 (VE98MR intracellular amastigotes, read-out: GI50 (µM) Experiment 1 Regresion): 0.65 µM
GI50 (VE98MR intracellular amastigotes, read-out: GI50 (µM) Experiment 2 Regresion): 1.09 µM
GI50 (VE98MR intracellular amastigotes, read-out: GI50 (µM) Experiment 3 Regresion): 0.89 µM
Regresion (GraphPad 6) of %Control vs dose (50% inhibitory concentration) (Exp1): 0.65 µM
Regresion (GraphPad 6) of %Control vs dose (50% inhibitory concentration) (Exp2): 1.09 µM
Regresion (GraphPad 6) of %Control vs dose (50% inhibitory concentration) (Exp3): 0.89 µM
Growth (%) Exp1 %Control (dose 0.10 µM, Exp1): 72.90%
Growth (%) Exp1 A/100MØ (dose 0.10 µM, Exp1): 117.33
Growth (%) Exp1 A/MØ (dose 0.10 µM, Exp1): 2.20
Growth (%) Exp1 Infección (dose 0.10 µM, Exp1): 53.33%
Growth (%) Exp2 %Control (dose 0.10 µM, Exp2): 77.33%
Growth (%) Exp2 A/100MØ (dose 0.10 µM, Exp2): 159.61
Growth (%) Exp2 A/MØ (dose 0.10 µM, Exp2): 2.67
Growth (%) Exp2 Infección (dose 0.10 µM, Exp2): 59.78%
Growth (%) Exp3 %Control (dose 0.10 µM, Exp3): 82.84%
Growth (%) Exp3 A/100MØ (dose 0.10 µM, Exp3): 205.27
Growth (%) Exp3 A/MØ (dose 0.10 µM, Exp3): 3.68
Growth (%) Exp3 Infección (dose 0.10 µM, Exp3): 55.78%
Average A/100MØ (dose 0.10 µM): 160.74
Growth (%) Exp1 %Control (dose 0.50 µM, Exp1): 57.32%
Growth (%) Exp1 A/100MØ (dose 0.50 µM, Exp1): 92.25
Growth (%) Exp1 A/MØ (dose 0.50 µM, Exp1): 2.05
Growth (%) Exp1 Infección (dose 0.50 µM, Exp1): 45.00%
Growth (%) Exp2 %Control (dose 0.50 µM, Exp2): 61.05%
Growth (%) Exp2 A/100MØ (dose 0.50 µM, Exp2): 125.99
Growth (%) Exp2 A/MØ (dose 0.50 µM, Exp2): 2.20
Growth (%) Exp2 Infección (dose 0.50 µM, Exp2): 57.27%
Growth (%) Exp3 %Control (dose 0.50 µM, Exp3): 73.43%
Growth (%) Exp3 A/100MØ (dose 0.50 µM, Exp3): 181.96
Growth (%) Exp3 A/MØ (dose 0.50 µM, Exp3): 3.24
Growth (%) Exp3 Infección (dose 0.50 µM, Exp3): 56.16%
Average A/100MØ (dose 0.50 µM): 133.40
Growth (%) Exp1 %Control (dose 1.00 µM, Exp1): 48.73%
Growth (%) Exp1 A/100MØ (dose 1.00 µM, Exp1): 78.42
Growth (%) Exp1 A/MØ (dose 1.00 µM, Exp1): 2.26
Growth (%) Exp1 Infección (dose 1.00 µM, Exp1): 34.70%
Growth (%) Exp2 %Control (dose 1.00 µM, Exp2): 59.91%
Growth (%) Exp2 A/100MØ (dose 1.00 µM, Exp2): 123.65
Growth (%) Exp2 A/MØ (dose 1.00 µM, Exp2): 2.80
Growth (%) Exp2 Infección (dose 1.00 µM, Exp2): 44.16%
Growth (%) Exp3 %Control (dose 1.00 µM, Exp3): 42.96%
Growth (%) Exp3 A/100MØ (dose 1.00 µM, Exp3): 106.46
Growth (%) Exp3 A/MØ (dose 1.00 µM, Exp3): 2.36
Growth (%) Exp3 Infección (dose 1.00 µM, Exp3): 45.11%
Average A/100MØ (dose 1.00 µM): 102.84
Growth (%) Exp1 %Control (dose 5.00 µM, Exp1): 16.08%
Growth (%) Exp1 A/100MØ (dose 5.00 µM, Exp1): 25.87
Growth (%) Exp1 A/MØ (dose 5.00 µM, Exp1): 1.60
Growth (%) Exp1 Infección (dose 5.00 µM, Exp1): 16.17%
Growth (%) Exp2 %Control (dose 5.00 µM, Exp2): 28.34%
Growth (%) Exp2 A/100MØ (dose 5.00 µM, Exp2): 58.49
Growth (%) Exp2 A/MØ (dose 5.00 µM, Exp2): 2.35
Growth (%) Exp2 Infección (dose 5.00 µM, Exp2): 24.89%
Growth (%) Exp3 %Control (dose 5.00 µM, Exp3): 8.53%
Growth (%) Exp3 A/100MØ (dose 5.00 µM, Exp3): 21.14
Growth (%) Exp3 A/MØ (dose 5.00 µM, Exp3): 1.13
Growth (%) Exp3 Infección (dose 5.00 µM, Exp3): 18.71%
Average A/100MØ (dose 5.00 µM): 35.17
Growth (%) Exp1 %Control (dose 10.00 µM, Exp1): 3.99%
Growth (%) Exp1 A/100MØ (dose 10.00 µM, Exp1): 6.42
Growth (%) Exp1 A/MØ (dose 10.00 µM, Exp1): 1.33
Growth (%) Exp1 Infección (dose 10.00 µM, Exp1): 4.83%
Growth (%) Exp2 %Control (dose 10.00 µM, Exp2): 9.85%
Growth (%) Exp2 A/100MØ (dose 10.00 µM, Exp2): 20.33
Growth (%) Exp2 A/MØ (dose 10.00 µM, Exp2): 1.50
Growth (%) Exp2 Infección (dose 10.00 µM, Exp2): 13.55%
Growth (%) Exp3 %Control (dose 10.00 µM, Exp3): 11.25%
Growth (%) Exp3 A/100MØ (dose 10.00 µM, Exp3): 27.88
Growth (%) Exp3 A/MØ (dose 10.00 µM, Exp3): 1.35
Growth (%) Exp3 Infección (dose 10.00 µM, Exp3): 20.65%
Average A/100MØ (dose 10.00 µM): 18.21
GI50 (intracellular amastigotes, Supplementary Materials II, read-out: GI50 (µM) VE98MR, mean of three experiments): 0.877 µM and 0.88 µM

Source: PMC7913927, “Leishmanicidal Activity of Betulin Derivatives in Leishmania amazonensis; Effect on Plasma and Mitochondrial Membrane Potential, and Macrophage Nitric Oxide and Superoxide Production” (Microorganisms, 2021)
